EC50 data for 59 molecules are collected here from patent US12357631B2 (priority 2018, dated 2025).

The experiment concerns the target PB2 (Influenza A virus, UniProt P03428). Nature of the experiment: biochemical. Format: binding.

A value given as a limit tells only on which side of the number the result lay.

PB2, sequence (P03428 whole entry, looked up): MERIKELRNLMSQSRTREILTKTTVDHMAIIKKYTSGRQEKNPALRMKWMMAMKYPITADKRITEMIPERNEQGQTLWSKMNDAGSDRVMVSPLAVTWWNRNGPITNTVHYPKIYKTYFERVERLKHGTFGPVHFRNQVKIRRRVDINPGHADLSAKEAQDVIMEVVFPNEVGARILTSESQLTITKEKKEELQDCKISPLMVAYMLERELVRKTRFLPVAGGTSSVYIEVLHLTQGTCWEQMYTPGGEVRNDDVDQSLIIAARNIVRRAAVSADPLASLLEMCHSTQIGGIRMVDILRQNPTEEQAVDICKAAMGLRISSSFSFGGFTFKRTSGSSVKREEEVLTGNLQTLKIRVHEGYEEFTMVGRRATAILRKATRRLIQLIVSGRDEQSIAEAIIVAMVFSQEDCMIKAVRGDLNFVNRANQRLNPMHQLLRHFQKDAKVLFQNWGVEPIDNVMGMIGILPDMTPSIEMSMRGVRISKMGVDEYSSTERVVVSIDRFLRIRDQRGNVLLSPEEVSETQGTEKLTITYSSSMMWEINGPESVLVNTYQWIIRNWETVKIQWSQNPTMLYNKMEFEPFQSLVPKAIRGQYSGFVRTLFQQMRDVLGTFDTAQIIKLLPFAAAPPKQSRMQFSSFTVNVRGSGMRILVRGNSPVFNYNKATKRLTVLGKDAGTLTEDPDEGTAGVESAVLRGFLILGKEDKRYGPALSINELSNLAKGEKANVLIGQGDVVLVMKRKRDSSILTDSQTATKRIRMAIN

The molecule `CCOCCOCCOCCNC(=O)N[C@@H]1CCC[C@H](Nc2nc(-c3c[nH]c4ncc(F)cc34)ncc2F)C1` [Compound A168] had a concentration for a half-maximal effect (EC50) of 5 to 25 µM.

As for `CN(CCOCCOCCOCCO)C(=O)N[C@@H]1CCC[C@H](Nc2nc(-c3c[nH]c4ncc(F)cc34)ncc2F)C1` [Compound A169], the concentration giving a half-maximal response (EC50) fell in the range of 50 to 100 µM.

`NCCOCCOCCOCCNC(=O)N[C@@H]1CCC[C@H](Nc2nc(-c3c[nH]c4ncc(F)cc34)ncc2F)C1` [Compound A170] yielded an EC50 above 100 µM.

Molecule `CN(CCOCCOCCOCCC(=O)O)C(=O)N[C@H]1CCC[C@@H](Nc2nc(-c3c[nH]c4ncc(F)cc34)ncc2F)C1` [Compound A171] returned an EC50 of 25 to 50 µM.

The molecule `O=C(O)CCOCCOCCOCCNC(=O)N[C@H]1CCC[C@@H](Nc2nc(-c3c[nH]c4ncc(F)cc34)ncc2F)C1` [Compound A172] gave an EC50 of 5 to 25 µM.

With `CN(CCOCCOCCOCCN)C(=O)N[C@@H]1CCC[C@H](Nc2nc(-c3c[nH]c4ncc(F)cc34)ncc2F)C1` [Compound A173], the half-maximal effective concentration (EC50) lay within 50 to 100 µM.

On to `CCCCCCCCCCCNC(=O)N[C@@H]1CCC[C@H](Nc2nc(-c3c[nH]c4ncc(F)cc34)ncc2F)C1` [Compound A174], for which the EC50 lay in the range of 50 to 100 µM.

In the case of `CCCCCCCCCCCN(C)C(=O)N[C@@H]1CCC[C@H](Nc2nc(-c3c[nH]c4ncc(F)cc34)ncc2F)C1` [Compound A175], the 50% effective concentration (EC50) lay within 50 to 100 µM.

Consider `CCOCCOCCOCCN(Cc1ccccc1)C(=O)N[C@@H]1CCC[C@H](Nc2nc(-c3c[nH]c4ncc(F)cc34)ncc2F)C1` [Compound A176], for which the EC50 is above 100 µM.

With `CCCCCOCCOCCN(C)C(=O)N[C@@H]1CCC[C@H](Nc2nc(-c3c[nH]c4ncc(F)cc34)ncc2F)C1` [Compound A177], the EC50 is above 100 µM.

For the molecule `CCOCCOc1cccc(CCNC(=O)N[C@@H]2CCC[C@H](Nc3nc(-c4c[nH]c5ncc(F)cc45)ncc3F)C2)c1` [Compound A178], the EC50 was above 100 µM.

For the molecule `CCCCCOCCOCCN(Cc1ccccc1)C(=O)N[C@@H]1CCC[C@H](Nc2nc(-c3c[nH]c4ncc(F)cc34)ncc2F)C1` [Compound A179], the 50% effective concentration (EC50) was above 100 µM.

`CCOCCOCCCCCNC(=O)N[C@@H]1CCC[C@H](Nc2nc(-c3c[nH]c4ncc(F)cc34)ncc2F)C1` [Compound A180] displayed an EC50 above 100 µM.

Molecule `CCOCCOCCCCCN(Cc1ccccc1)C(=O)N[C@@H]1CCC[C@H](Nc2nc(-c3c[nH]c4ncc(F)cc34)ncc2F)C1` [Compound A182] gave a half-maximal effective concentration (EC50) of 50 to 100 µM.

Consider `CCCCCOCCOCCNC(=O)N[C@@H]1CCC[C@H](Nc2nc(-c3c[nH]c4ncc(F)cc34)ncc2F)C1` [Compound A183], for which the EC50 lay within 50 to 100 µM.

`CCOCc1cccc(COCCN(C)C(=O)N[C@@H]2CCC[C@H](Nc3nc(-c4c[nH]c5ncc(F)cc45)ncc3F)C2)c1` [Compound A184] registered a 50% effective concentration (EC50) above 100 µM.

`CCCCCCCCCCCN(Cc1ccccc1)C(=O)N[C@@H]1CCC[C@H](Nc2nc(-c3c[nH]c4ncc(F)cc34)ncc2F)C1` [Compound A185] yielded a concentration for a half-maximal effect (EC50) above 100 µM.

Turning to `CCOCCOc1cccc(CCN(C)C(=O)N[C@@H]2CCC[C@H](Nc3nc(-c4c[nH]c5ncc(F)cc45)ncc3F)C2)c1` [Compound A186], the EC50 was above 100 µM.

For `CCOCc1cccc(COCCNC(=O)N[C@@H]2CCC[C@H](Nc3nc(-c4c[nH]c5ncc(F)cc45)ncc3F)C2)c1` [Compound A187], the EC50 was 50 to 100 µM.

`CN(CCOCCOCCOCCO)C(=O)N[C@H]1CCC[C@@H](Nc2nc(-c3c[nH]c4ncc(F)cc34)ncc2F)C1` [Compound A190] returned a half-maximal effective concentration (EC50) above 100 µM.

Consider `CN(CCOCCOCCOCCO)C(=O)N[C@H]1CCC[C@@H](Nc2nc(-c3c[nH]c4ncc(F)cc34)ncc2F)C1` [Compound A191], for which the EC50 fell in the range of 25 to 50 µM.

`CCOCCCCCOCCNC(=O)N[C@H]1CCC[C@@H](Nc2nc(-c3c[nH]c4ncc(F)cc34)ncc2F)C1` [Compound A192] yielded a concentration for a half-maximal effect (EC50) above 100 µM.

`CCOCCCCCOCCN(C)C(=O)N[C@H]1CCC[C@@H](Nc2nc(-c3c[nH]c4ncc(F)cc34)ncc2F)C1` [Compound A193] returned a concentration for a half-maximal effect (EC50) above 100 µM.

Molecule `CCOCCOCCOCCNC(=O)N(CCCCc1ccccc1)[C@H]1CCC[C@@H](Nc2nc(-c3c[nH]c4ncc(F)cc34)ncc2F)C1` [Compound A194] came in with an EC50 above 100 µM.

Molecule `CCOCCCCCOCCN(Cc1ccccc1)C(=O)N[C@H]1CCC[C@@H](Nc2nc(-c3c[nH]c4ncc(F)cc34)ncc2F)C1` [Compound A196] came in with a half-maximal effective concentration (EC50) above 100 µM.

Molecule `CCOCCOCCOCCNC(=O)N[C@H]1CCC[C@@H](Nc2nc(-c3ccnc(Cl)c3)ncc2F)C1` [Compound A197] returned an EC50 above 100 µM.

In the case of `CCCOCCCCCCCN(C)C(=O)N[C@@H]1CCC[C@H](Nc2nc(-c3c[nH]c4ncc(F)cc34)ncc2F)C1` [Compound A199], the half-maximal effective concentration (EC50) is above 100 µM.

Take `CCCCOCCCCCCN(C)C(=O)N[C@@H]1CCC[C@H](Nc2nc(-c3c[nH]c4ncc(F)cc34)ncc2F)C1` [Compound A200]: the EC50 was above 100 µM.

As to `CCCCCOCCCCCN(C)C(=O)N[C@@H]1CCC[C@H](Nc2nc(-c3c[nH]c4ncc(F)cc34)ncc2F)C1` [Compound A201], the half-maximal effective concentration (EC50) was above 100 µM.

As to `CCOCCOCCCCCN(CC(=O)O)C(=O)N[C@@H]1CCC[C@H](Nc2nc(-c3c[nH]c4ncc(F)cc34)ncc2F)C1` [Compound A202], the EC50 was in the range of 5 to 25 µM.

`CCOCCOCCCCCN(CC)C(=O)N[C@H]1CCC[C@@H](Nc2nc(-c3c[nH]c4ncc(F)cc34)ncc2F)C1` [Compound A203]: the EC50 is above 100 µM.

Take `CCOCCOCc1cccc(CN(C)C(=O)N[C@@H]2CCC[C@H](Nc3nc(-c4c[nH]c5ncc(F)cc45)ncc3F)C2)c1` [Compound A204]: the EC50 was above 100 µM.

`CCCCCCOCCCCN(C)C(=O)N[C@H]1CCC[C@@H](Nc2nc(-c3c[nH]c4ncc(F)cc34)ncc2F)C1` [Compound A205] showed a 50% effective concentration (EC50) above 100 µM.

In turn, `CCCCCCCOCCCN(C)C(=O)N[C@H]1CCC[C@@H](Nc2nc(-c3c[nH]c4ncc(F)cc34)ncc2F)C1` [Compound A206] came in with an EC50 above 100 µM.

In turn, `CCOCCOCCCCCN(Cc1ccccn1)C(=O)N[C@@H]1CCC[C@H](Nc2nc(-c3c[nH]c4ncc(F)cc34)ncc2F)C1` [Compound A207] displayed an EC50 of 50 to 100 µM.

`CCOCCOCCCCCN(Cc1ccncc1)C(=O)N[C@H]1CCC[C@@H](Nc2nc(-c3c[nH]c4ncc(F)cc34)ncc2F)C1` [Compound A208] gave a 50% effective concentration (EC50) above 100 µM.

In turn, `CCOCCOCCCCCN(Cc1cncnc1)C(=O)N[C@H]1CCC[C@@H](Nc2nc(-c3c[nH]c4ncc(F)cc34)ncc2F)C1` [Compound A209] had a concentration for a half-maximal effect (EC50) above 100 µM.

`CCOCCOCCCCCN(CC(N)=O)C(=O)N[C@@H]1CCC[C@H](Nc2nc(-c3c[nH]c4ncc(F)cc34)ncc2F)C1` [Compound A210] returned a concentration for a half-maximal effect (EC50) of 50 to 100 µM.

`CCOCCCCCCCCN(C)C(=O)N[C@H]1CCC[C@@H](Nc2nc(-c3c[nH]c4ncc(F)cc34)ncc2F)C1` [Compound A211] displayed a half-maximal effective concentration (EC50) above 100 µM.

For `CCOCCOCCc1cccc(N(C)C(=O)N[C@H]2CCC[C@@H](Nc3nc(-c4c[nH]c5ncc(F)cc45)ncc3F)C2)c1` [Compound A212], the half-maximal effective concentration (EC50) is above 100 µM.

For the molecule `CCOCCCc1cccc(CCN(C)C(=O)N[C@H]2CCC[C@@H](Nc3nc(-c4c[nH]c5ncc(F)cc45)ncc3F)C2)n1` [Compound A213], the EC50 is above 100 µM.

Regarding `CCOCCOCCCCCN(C(=O)N[C@H]1CCC[C@@H](Nc2nc(-c3c[nH]c4ncc(F)cc34)ncc2F)C1)C(C)C` [Compound A214], the EC50 was above 100 µM.

`CCOCCCc1cncc(CCN(C)C(=O)N[C@H]2CCC[C@@H](Nc3nc(-c4c[nH]c5ncc(F)cc45)ncc3F)C2)c1` [Compound A215] registered an EC50 above 100 µM.

Regarding `CCOc1ccccc1OCCCCCN(C)C(=O)N[C@@H]1CCC[C@H](Nc2nc(-c3c[nH]c4ncc(F)cc34)ncc2F)C1` [Compound A216], the EC50 was above 100 µM.

`CCOCCOCCCCCN(C)C(=O)NC1CCC(Nc2nc(-c3c[nH]c4ncc(F)cc34)ncc2F)C1` (centres unmarked) [Compound A217] gave an EC50 above 100 µM.

`CCOCCOCCCCCN(C)C(=O)NCC(C)CNc1nc(-c2c[nH]c3ncc(F)cc23)ncc1F` (centres unmarked) [Compound A218] came in with an EC50 above 100 µM.

`CCOCCOCCCCCNC(=O)N(C)[C@H]1CCC[C@@H](Nc2nc(-c3c[nH]c4ncc(F)cc34)ncc2F)C1` [Compound A219] gave an EC50 of 25 to 50 µM.

As for `CCOCCCc1cccc(CCN(C)C(=O)N[C@H]2CCC[C@@H](Nc3nc(-c4c[nH]c5ncc(F)cc45)ncc3F)C2)c1` [Compound A220], the EC50 lay in the range of 50 to 100 µM.

Molecule `CN(CCCCCOCCOCc1ccccc1)C(=O)N[C@H]1CCC[C@@H](Nc2nc(-c3c[nH]c4ncc(F)cc34)ncc2F)C1` [Compound A221] returned a 50% effective concentration (EC50) above 100 µM.

`CN(CCCCCOCCOCc1ccccn1)C(=O)N[C@@H]1CCC[C@H](Nc2nc(-c3c[nH]c4ncc(F)cc34)ncc2F)C1` [Compound A222]: the EC50 was 50 to 100 µM.

With `CCOc1ccccc1OCCCCCN(C)C(=O)N[C@H]1CCC[C@@H](Nc2nc(-c3c[nH]c4ncc(F)cc34)ncc2F)C1` [Compound A225], the EC50 was above 100 µM.

`CCOCCOCCCCCN(CC)C(=O)N[C@H]1CCC[C@@H](Nc2nc(-c3c[nH]c4ncc(F)cc34)ncc2F)C1` [Compound A227] showed an EC50 above 100 µM.

`CCOCCOCCCCCN(CC)C(=O)N[C@H]1CCC[C@@H](Nc2nc(-c3c[nH]c4ncc(F)cc34)ncc2F)C1` [Compound A228] returned a half-maximal effective concentration (EC50) of 50 to 100 µM.

In turn, `CCCOCCCCCCCN(C)C(=O)N[C@@H]1CCC[C@H](Nc2nc(-c3c[nH]c4ncc(F)cc34)ncc2F)C1` [Compound A235] showed an EC50 of 50 to 100 µM.

As for `CCCOCCCCCCCN(C)C(=O)N[C@@H]1CCC[C@H](Nc2nc(-c3c[nH]c4ncc(F)cc34)ncc2F)C1` [Compound A236], the 50% effective concentration (EC50) fell in the range of 50 to 100 µM.

As for `CCOCCOCCCCCN(C)C(=O)N(C)[C@H]1CCC[C@@H](Nc2nc(-c3c[nH]c4ncc(F)cc34)ncc2F)C1` [Compound A241], the concentration giving a half-maximal response (EC50) is above 100 µM.

As for `CCOCCOCCCCCN(C(=O)N[C@H]1CCC[C@@H](Nc2nc(-c3c[nH]c4ncc(F)cc34)ncc2F)C1)C1CC1` [Compound A242], the EC50 is above 100 µM.

In the case of `CCCOCCOCCCCN(C)C(=O)N[C@H]1CCC[C@@H](Nc2nc(-c3c[nH]c4ncc(F)cc34)ncc2F)C1` [Compound A243], the concentration for a half-maximal effect (EC50) is above 100 µM.

`COCCOCCCCCCN(C)C(=O)N[C@H]1CCC[C@@H](Nc2nc(-c3c[nH]c4ncc(F)cc34)ncc2F)C1` [Compound A244] registered an EC50 above 100 µM.

As usually defined, the EC50 is the concentration that produces a half-maximal response. Low readings indicate higher potency in that assay, high ones lower potency in that assay.
